Measurements: US9238020B2, “Compositions comprising enzyme-cleavable phenol-modified tapentadol prodrug” (priority 2010, dated 2016)
“Also recorded” adds a separate entry of the source. Where a name gives a salt, the structure may show the parent alone. Read-outs that look alike come from different tables or passages of the source.

Columns and labels:
[1] = Oral administration of tapentadol prodrugs with or without co-dose of trypsin inhibitor Compound 109 to rats; assay type: in vivo, rat; conditions: by suppressing Cmax and AUC and/or delaying Tmax
Description: Saline solutions of Compound TP-1 (which can be prepared as described in the examples herein) were dosed at 39 μmol/kg (25 mg/kg) with or without a co-dose of 55 μmol/kg (30 mg/kg) Compound 109 (Catalog No. 3081, Tocris Bioscience, Ellisville, Mo., USA or Catalog No. WS38665, Waterstone Technology, Carmel, Ind., USA) as indicated in Table 3 via oral gavage into jugular vein-cannulated male Sprague Dawley rats (4 per groups) that had been fasted for 16-18 hr prior to oral dosing. At specified time points, blood samples were drawn, harvested for plasma via centrifugation at 5,400 rpm at 4° C. for 5 min, and 100 μl plasma transferred from each sample into a fresh tube containing 2 μl of 50% formic acid. The tubes were vortexed for 5-10 seconds, immediately placed in dry ice and then stored in a −80° C. freezer until analysis by HPLC/MS.
Table 3 and FIG. 5 provide tapentadol exposure results for rats administered with Compound TP-1 in the absence or presence of trypsin inhibitor.
Saline solutions of Compound TP-3 or Compound TP-4 (which can be prepared as described in the examples herein) were dosed as indicated in Table 9 and according to the procedures as described in Example 13. Sampling and analysis procedures were as described in Example 13. […]

[2] = Pharmacokinetics of tapentadol release following PO administration of prodrugs or tapentadol to rats; assay type: in vivo, rat; conditions: approximately equimole amounts
Description: Saline solutions of Compound TP-1 (which can be prepared as described in the examples herein) were dosed as indicated in Table 1 via oral gavage into 4 jugular vein-cannulated male Sprague Dawley rats that had been fasted for 16-18 hr prior to oral dosing. At specified time points, blood samples were drawn, harvested for plasma via centrifugation at 5,400 rpm at 4° C. for 5 min, and 100 microliters (μl) plasma transferred from each sample into a fresh tube containing 2 μl of 50% formic acid. The tubes were vortexed for 5-10 seconds, immediately placed in dry ice and then stored in a −80° C. freezer until analysis by HPLC/MS.
Saline solutions of Compounds TP-1, TP-3, TP-4, (which can be prepared as described in the examples herein) or tapentadol were dosed in approximately equimole amounts as indicated in Table 6. Dose administration, sampling and analysis procedures were as described in Example 11.
Dosing, sampling and analysis procedures were as described in Example 11.

[3] = Pharmacokinetics of prodrug and tapentadol following IV administration to rats; conditions: male, Sprague Dawley, in vivo; Table 7; prodrug in rat plasma; IV 2 mg/kg; read-out: Prodrug Cmax ± sd
Description: Compound TP-1 (which can be prepared as described in the examples herein) was dissolved in saline and injected into the tail vein of 4 jugular vein-cannulated male Sprague Dawley rats at a dose of 2 mg/kg. At specified time points, blood samples were drawn, harvested for plasma via centrifugation at 5,400 rpm at 4° C. for 5 min, and 100 μl plasma transferred from each sample into a fresh tube containing 2 μl of 50% formic acid. The tubes were vortexed for 5-10 seconds, immediately placed in dry ice and then stored in a −80° C. freezer until analysis by high performance liquid chromatography/mass spectrometry (HPLC/MS).
Table 2 and FIG. 4 provide Compound TP-1 and tapentadol exposure results for rats administered Compound TP-1 intravenously. Results in Table 2 are reported as maximum plasma concentration (Cmax) of Compound TP-1 and tapentadol (TP), respectively, (average±standard deviation).
Compound TP-3 or Compound TP-4 (which can be prepared as described in the examples herein), or tapentadol were dissolved in saline and injected into the tail vein of four jugular vein-cannulated male Sprague Dawley rats at a dose of 2 mg/kg. Sampling and analysis procedures were as described in Example 12.

[4] = target: T1, trypsin (Bos taurus, UniProt P00760); test: In vitro trypsin conversion of prodrug to tapentadol and inhibition thereof by Compound 109; assay type: biochemical, bovine; conditions: bovine, trypsin from bovine pancreas, Table 8, 4815 BAEE U trypsin/mL, read-out: Pro-drug trypsin half-life, Average ± sd (converted)
T1 construct: purchased Sigma-Aldrich T8003; host or cells: bovine pancreas
T1 sequence (P00760 24-246): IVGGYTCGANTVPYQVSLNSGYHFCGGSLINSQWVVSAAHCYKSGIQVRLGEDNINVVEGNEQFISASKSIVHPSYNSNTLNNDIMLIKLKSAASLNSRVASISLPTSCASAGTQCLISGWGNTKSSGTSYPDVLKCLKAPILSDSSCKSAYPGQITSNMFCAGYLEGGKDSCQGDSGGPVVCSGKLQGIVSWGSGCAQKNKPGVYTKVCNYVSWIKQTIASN
Description: (§1) Compound TP-1 was incubated with trypsin from bovine pancreas (Catalog No. T8003, Type I, ˜10,000 BAEE units/mg protein, Sigma-Aldrich). Specifically, the reactions included 0.761 nM of Compound TP-1•2HCl, 22.5 mM calcium chloride, 40 to 172 mM Tris pH 8 and 0.25% DMSO with the BAEE units of trypsin indicated in Table 4. The reactions were conducted at 37° C. for 24 hr. Samples were collected at specified time points, transferred into 0.5% formic acid in acetonitrile to stop trypsin activity and stored at less than −70° C. until analysis by LC-MS/MS.
(§2) Compound TP-1 was also incubated in the presence of 2 micromolar (μM) trypsin inhibitor Compound 109. In that case, Compound TP-1 was added 5 min after the other incubation components. Other reaction and sample treatment conditions were as described above.
(§3) Table 4 indicates the results of exposure of Compound TP-1 to trypsin in the absence or presence of trypsin inhibitor. The results are expressed as half-life of prodrug when exposed to trypsin (i.e., Prodrug trypsin half-life) in hours and rate of tapentadol (TP) formation in umol/h/BAEE U trypsin.
(§4) Compound TP-1, Compound TP-3, or Compound TP-4 (which can be prepared as described in the examples herein) were incubated in the absence or presence of Compound 109 as shown in Table 8. Incubations and analysis procedures were as described in Example 14.

[5] = target: T2, trypsin from bovine pancreas (Bos taurus, UniProt P00760); test: as above; assay type: biochemical; conditions: Table 8, 4815 BAEE U trypsin/mL
T2 construct: purchased Sigma-Aldrich T8003; host or cells: bovine pancreas
T2 sequence (P00760 24-246): T1 sequence (P00760 24-246)
Description: as §1, §2, §3, §4

[6] = Plasma and cerebrospinal fluid penetration following IV administration to rats; assay type: in vivo, rat; conditions: rats, IV, 2 minutes after dosing
Description: Compound TP-1 (which can be prepared as described in the examples herein) at a dose of 10 mg/kg, or tapentadol, at a dose of 4 mg/kg, were dissolved in saline and injected into the tail vein of 4 male Sprague Dawley rats. These doses represent approximately equimole amounts. After 2 minutes, the rats were anesthetized by carbon dioxide asphyxiation, blood samples were drawn and harvested for plasma by centrifugation at 5,400 rpm at 4° C. for 5 min, and 100 μl plasma was transferred from each sample into a fresh tube containing 2 μl of 50% formic acid. The CSF fluid was collected using a 22×1 inch gauge needle connected to polyurethane catheter type MRE-040 tubing (Braintree Scientific, Inc., Braintree, Mass.). The needle was inserted just below the nuchal crest at the area of the foramen magnum, and clear CSF fluid was collected into the catheter and transferred into a collection tube. The CSF samples were centrifuged at 5,400 rpm at 4° C. for 5 min, and 100 μl CSF fluid was transferred from each sample into a fresh tube. The plasma and CSF samples were immediately placed in dry ice and then stored in a −80° C. freezer until analysis by high performance liquid chromatography/mass spectrometry (HPLC/MS). In order to study Compound TP-1 and tapentadol plasma and CSF penetration over time, additional groups of 4 rats were administered compounds as described above and anesthetized at specified time points. Plasma and CSF were collected and analyzed as described above.
Results in Table 14 are reported, for each group of four rats, as mean concentrations of the indicated compounds in plasma or CSF. Table 14 also provides the plasma-to-CSF (plasma/CSF) partitioning coefficient, i.e., the ratio of concentration in the plasma to concentration in the CSF of the indicated compounds.

[7] = target: human μ-opioid receptor (Homo sapiens, UniProt P35372); test: In vitro human μ-opioid receptor agonist cellular functional assay (cAMP, CHO cells); assay type: cell-based; set-up: expressed in transfected cells; conditions: CHO cells expressing human μ-opioid receptor, 37° C., 10 min
Description: The general procedure follows the protocol described by J.-B. Wang, et al, ibid. More specifically, the assay included as appropriate, Compound TP-1 or tapentadol and recombinant Chinese hamster ovary (CHO) cells expressing the human μ-opioid receptor on their cell surfaces. The control reaction included 1 μM DAMGO. The reaction mixtures were incubated at 37° C. for 10 min, and the reaction product was cyclic AMP (cAMP). The samples were submitted to homogeneous time resolved fluorescence (HTRF®). EC50 values (concentration producing a half-maximal specific response) were determined by non-linear regression fit using Hill plot software.

[8] = tested on: norepinephrine uptake into rat hypothalamus synaptosomes; test: In vitro functional norepinephrine uptake assay; assay type: biochemical
Description: The general procedure follows the protocol described by S. Perovic and W. E. G. Muller, 1995, Arzneim-Forsch. Drug Res. 45, 1145-1148. More specifically, the assays included each of the compounds indicated in Table 13 and rat hypothalamus synaptosomes incubated with 0.2 μCi/mL [^3H] norepinephrine. For a control reaction, protriptyline was used. The reaction mixtures were incubated at 37° C. for 20 min, and the reaction product of [^3H] norepinephrine incorporation into the synaptosomes was measured by scintillation counting. IC50 values (concentration causing a half-maximal inhibition of control specific activity) were determined by non-linear regression fit using Hill plot software.

[9] = pH 8, with Compound 109 (trypsin inhibitor), Compound 109 40 μM
[10] = TP-1 10 mg/kg, tapentadol 4 mg/kg

Sequence of human μ-opioid receptor (P35372 whole entry): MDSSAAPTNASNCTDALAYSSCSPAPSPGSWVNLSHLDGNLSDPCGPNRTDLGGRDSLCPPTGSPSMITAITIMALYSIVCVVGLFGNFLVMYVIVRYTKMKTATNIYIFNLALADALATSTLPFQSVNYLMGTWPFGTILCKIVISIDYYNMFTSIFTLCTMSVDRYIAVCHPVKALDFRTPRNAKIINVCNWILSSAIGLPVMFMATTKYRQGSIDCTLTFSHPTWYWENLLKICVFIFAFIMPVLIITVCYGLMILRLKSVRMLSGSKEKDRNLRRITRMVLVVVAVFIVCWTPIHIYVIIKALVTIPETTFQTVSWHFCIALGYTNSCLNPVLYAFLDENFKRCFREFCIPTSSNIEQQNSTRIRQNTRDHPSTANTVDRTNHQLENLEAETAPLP

SMILES | effect of co-dosed Compound 109 on release of tapentadol from prodrug [1] | tapentadol plasma concentration profile compared to administration of tapentadol [2] | Cmax [3] | half-life at 0.761 nM [4, 9] | half-life at 0.761 nM ([4]; pH 8, Compound 109 0 μM) | Rate of TP formation, Average ± sd ([5]; Compound 109 0 μM) | Rate of TP formation, Average ± sd ([5]; Compound 109 40 μM) | Compound conc. in CSF [6, 10] | Compound conc. in Plasma [6, 10] | Plasma/CSF partitioning coefficient ([6]; ratio of concentration in plasma to concentration in CSF) | agonist response in the μ-opioid receptor functional assay [7] | IC50 ([8]; [3H] norepinephrine incorporation into rat hypothalamus synaptosomes, 37° C., 20 min) | activity as a norepinephrine reuptake inhibitor ([8]; rat hypothalamus synaptosomes)
N=C(N)c1ccc2cc(OC(=O)c3ccc(N=C(N)N)cc3)ccc2c1 [Compound 109, 6-carbamimidoylnaphthalen-2-yl 4-(diaminomethyleneamino)benzoate] | attenuates Compound TP-1's ability to release tapentadol; also recorded: attenuates the abilities of both Compound TP-3 and Compound TP-4 to release tapentadol; also recorded: can attenuate the abilities of both Compound TP-1 and Compound TP-3 to release tapentadol | – | – | – | – | – | – | – | – | – | – | – | –
CC[C@@H](c1cccc(OC(=O)N(C)CCNC(=O)[C@H](CCCCN)NC(=O)CC(=O)O)c1)[C@@H](C)CN(C)C [Compound TP-3, N—[(S)-5-Amino-1-(2-{[3-((1R,2R)-3-dimethylamino-1-ethyl-2-methyl-propyl)-phenoxycarbonyl]-methyl-amino}-ethylcarbamoyl)-pentyl]-malonamic acid] | – | suppressed Cmax and delayed Tmax | 1460 ± 99 ng/mL | 12.2 ± 0.33 h | 0.271 ± 0.0023 h | 0.0258 ± 0.0024 umol/h/BAEE U | 0.0048 ± 0.0000 umol/h/BAEE U | – | – | – | – | – | –
CC[C@@H](c1cccc(OC(=O)N(C)CC(C)(C)CNC(=O)[C@H](CCCNC(=N)N)NC(=O)CC(=O)O)c1)[C@@H](C)CN(C)C [Compound TP-4, N—[(S)-1-(3-{[3-((1R,2R)-3-Dimethylamino-1-ethyl-2-methyl-propyl)-phenoxycarbonyl]-methyl-amino}-2,2-dimethyl-propylcarbamoyl)-4-guanidino-butyl]-malonamic acid] | – | suppressed Cmax and delayed Tmax | 988 ± 89 ng/mL | 1.76 ± 0.22 h | 0.0823 ± 0.0028 h | 0.0753 ± 0.0007 umol/h/BAEE U | 0.028 ± 0.0004 umol/h/BAEE U | – | – | – | – | – | –
CC[C@@H](c1cccc(O)c1)[C@@H](C)CN(C)C [Tapentadol, 3-[(1R,2R)-3-(dimethylamino)-1-ethyl-2-methylpropyl]phenol hydrochloride] | – | – | – | – | – | – | – | 179 ng/mL | 1870 ng/mL | 10.4 | no response up to a concentration of 10 μM | 390 nM | has activity as a norepinephrine reuptake inhibitor
